Measured values reported in PMC12336229, “Peptide-mimetics derived from leucyl-tRNA synthetase are potential agents for the therapy of mt-tRNA related diseases” (Frontiers in Pharmacology, 2025).
One block for each compound: values may come before it. Square brackets hold non-standard residues; d marks the D form. Peptide text beside a SMILES is read from it.

Columns and labels:
[1] = Plasma stability (UPLC-MS); type: in vitro ADME, human; settings: human EDTA plasma from four healthy volunteers, 37°C, gentle shaking, UPLC-MS (SIR); for remaining at 72 h, 0.2 mM: peak area vs time 0, read-out: Amount of detectable compound after incubation with human plasma
Protocol: To assess whether the β32_33 peptide, PMT, PMT-8a and PMT-8b peptide-mimetics are stable in blood, we set up a chromatographic assay able to evaluate compound concentration after incubation in human plasma.
Four different samples from healthy volunteers were used. Blood was drawn by venepuncture in vacutainer containing EDTA as an anticoagulant. Plasma was separated by centrifugation and immediately used for the experiments. Each compound was dissolved in 500 μL plasma at a final concentration of 0.2 mM and split into two aliquots, one of which was immediately analysed to assess the basal compound level (T0); the other was incubated at 37°C under gentle shaking, and the amount of each compound was measured at different time points (i.e., 1.5, 3, 6 and 72 h).
To perform chromatographic analyses, the samples were treated with 3 volumes of acetonitrile containing 1% formic acid and then extracted by using the Ostro™ pass-through sample preparation system to remove proteins and phospholipids. Samples were dried under vacuum, resuspended in 100 μL of 0.1% formic acid containing 5% acetonitrile, and then injected directly onto the chromatographic column.
Chromatographic analyses were performed on a Water Acquity H-Class UPLC system (Waters, Milford, MA, United States), including a quaternary solvent manager (QSM), a sample manager with a flow-through needle system (FTN), a photodiode array detector (PDA) and a single-quadruple mass detector with electrospray ionization source (ACQUITY QDa). Analyses were performed on a reverse phase C18 column (75 mm × 3.2 mm i. d., 2.5 μm particle size). The mobile phase was solvent A, 0.1% formic acid in water, and solvent B, 0.1% formic acid in acetonitrile. The flow rate was 0.5 mL/min, the column temperature was set at 25°C and the elution was performed by linearly increasing the concentration of solvent B up to 70% in 7 min. Mass spectrometric detection was performed in the positive electrospray ionization mode, using nitrogen as the nebulizer gas. Analyses were performed in the Total Ion Current (TIC) mode with a mass range of 100–1200 m/z. The capillary voltage was 0.8 kV, cone voltage 8 V, ion source temperature 120°C and probe temperature 600°C. Quantification was performed by Selected Ion Recording (SIR): at m/z = 917.88, corresponding to the [M+2H]^2+ ion obtained from either β32_33 peptide or PMT; at m/z = 961.42, corresponding to the [M + H] ^+ obtained from PMT-8a; and at m/z = 869.48, corresponding to the [M + H]^+ ion obtained from PMT-8b.

[2] = healthy animals; reached immediately, stable up to 24 h after injection; ref Peng et al., 2018; cited from earlier work
Excerpt: PMT radiolabelling with ^64Cu allowed us to follow the in vivo distribution of the peptide in the body districts of healthy animals over time.

mutant cybrids = assay: Confocal fluorescence microscopy, co-localization with mitochondria (Mitotracker Red); type: cell-based, human; settings: Cy5 constructs 0.25 µM in glucose medium, imaged after 24 h, Mitotracker Red; mean ± SEM of at least five images
Protocol: Previously established osteosarcoma-derived (143B.TK-) cybrid cell lines from patients, which bear either the m.3243A>G mutation in mt-tRNA^Leu(UUR) or the m.8344A>G mutation in mt-tRNA^Lys and controls ([Perli et al., 2014]; [Perli et al., 2016]; [Perli et al., 2020]) were used.
Constructs made of compounds listed in Table 1, comprising D-peptides linked to the Cy5 fluorophore via maleimide cross-linker, were administered to sub-confluent cybrid cell cultures at 0.25 µM in glucose medium. About 24 h after treatment with each construct, cells were incubated with 200 nM Mitotracker Red FM (LifeTechnologies Italia, Monza, Italy) for 30 min at 37°C.
Subsequently, cells were visualized by confocal microscopy. Images of 800 × 800 px (at 88 nm/px) were acquired at the Olympus iX83 FluoView1200 laser scanning confocal microscope using a 60 × NA1,35 oil objective (Olympus Italia SRL Milano, Italy), zoom 3×, 559 nm, and 635 nm lasers and filter setting for Mitotracker Red and Cy5. The fluorescence images were analysed with the ImageJ software ([Rasband, 2018]) to determine the Pearson’s correlation coefficient.
For a subset of experiments, we evaluated the mt localization of constructs up to 72 h after treatment. PMT and PMT fragments were administered to sub-confluent cybrids at a concentration of 0.25 µM in the glucose medium. At 24-, 48- and 72-h after treatment, cells were incubated with Mitotracker Red and visualized by confocal microscopy. After each confocal imaging section, a fresh glucose medium was added to the cells, which were maintained under standard conditions (a humidified atmosphere of 95% air and 5% CO2 at 37°C).

- remaining at 72 h, 0.2 mM ([1]; 72 h): > 90%
SMILES: CC(C)C[C@@H](NC(=O)[C@@H](Cc1ccccc1)NC(=O)[C@@H](CO)NC(=O)[C@@H](CCCCN)NC(=O)[C@H](N)CCCCN)C(=O)N[C@H](CO)C(=O)N1CCC[C@@H]1C(=O)N[C@H](CCCNC(=N)N)C(N)=O [PMT-8a] (H-[dK][dK][dS][dF][dL][dS][dP][dR]-NH2)

- remaining at 72 h, 0.2 mM ([1]; 72 h): > 85%
SMILES: CC[C@@H](C)[C@@H](NC(=O)[C@@H](CC(C)C)NC(=O)[C@@H](C)NC(=O)[C@H](NC(=O)[C@@H](CCCNC(=N)N)NC(=O)[C@H]1CCCN1C(=O)[C@@H](CO)NC(=O)[C@H](N)CC(C)C)[C@H](C)O)C(N)=O [PMT-8b] (H-[dL][dS][dP][dR][dT][dA][dL][dI]-NH2)

SMILES: [64Cu] [free ^64Cu]
- Radioactivity concentration in different cortical regions [2]: 0.4–0.6 %ID/mL

- metabolised at 1.5 h, 0.2 mM ([1]; 1.5 h, peak area vs time 0, read-out: Decrease of amount of compound after incubation with human plasma): 90%
- Amount of detectable compound after incubation with human plasma ([1]; 72 h, 0.2 mM, peak area vs time 0): almost undetectable
SMILES: CC[C@H](C)[C@H](NC(=O)[C@H](CC(C)C)NC(=O)[C@H](C)NC(=O)[C@@H](NC(=O)[C@H](CCCNC(=N)N)NC(=O)[C@@H]1CCCN1C(=O)[C@H](CO)NC(=O)[C@H](CC(C)C)NC(=O)[C@H](Cc1ccccc1)NC(=O)[C@H](CO)NC(=O)[C@H](CCCCN)NC(=O)[C@@H](N)CCCCN)[C@@H](C)O)C(=O)N[C@@H](CC(N)=O)C(=O)N[C@@H](Cc1ccccc1)C(=O)N[C@@H](CC(C)C)C(=O)N[C@H](C(N)=O)C(C)C [β32_33 peptide]
- Pearson's correlation coefficient (PCC), mt localization (mutant cybrids): 0.78 ± 0.06
